Data: patent US20050049299A1, “Selective inhibitors of stat-3 activation and uses thereof” (priority 2003, published 2005)

Experiments:
Type in all cases: cell-based, human
U266 cells = experiment: IL-6-induced proliferation of U266 cells (thymidine incorporation, MTT); details: curcumin 10 μM, 48 h, serum-free; thymidine incorporation and MTT
Description: FIGS. 7A-B show& that IL-6 induces proliferation of human multiple myeloma cells and curcumin inhibits it. […] Cell proliferation assays were performed as described below. Results are shown as mean (±s.d.) of percent [^3H] thymidine incorporation or percent proliferation by MTT of triplicate cultures compared to the untreated control.
The antiproliferative effects of curcumin against different multiple myeloma cell lines were determined by the MTT dye uptake method as described earlier (28). Briefly, the cells (5000/well) were incubated in triplicate in a 96-well plate in the presence or absence of indicated test samples in a final volume of 0.1 ml for 24 h at 37° C. […] The OD at 570 nm was measured using a 96-well multiscanner autoreader (Dynatech MR 5000), with the extraction buffer serving as blank. Percent cell viability cell viability was calculated using the following formula: Percent cell viability=(OD of the experiment samples/OD of the control)×100.
The antiproliferative effects of curcumin were also monitored by the thymidine incorporation method. […] Six hours before the completion of experiment, cells were pulse treated with 0.5 μCi [^3H]thymidine, and the uptake of [^3H]thymidine was monitored using a Matrix-9600 β-counter (Packard Instruments, Downers Grove, Ill.). […]
Whether curcumin suppresses the proliferative effects of IL-6 was determined.

STAT3 phosphorylation = experiment: Constitutive STAT3 phosphorylation in U266 cells (Western blot)
Description: (§1) U266 cells (2×10^6) were treated with the indicated concentrations of curcumin for 1 h, or treated with 50 μM curcumin for the indicated durations and levels of phosphorylated-STAT3 (upper panel) and STAT3 (lower panel) were examined in whole cell extracts by Western Blotting. […] U266 cells (2×10^6) were treated with 50 μM curcumin for indicated durations, and examined for phosphorylated and nonphosphorylated-STAT3, and STAT5. […] U266 cells (2×10^6) were preincubated with curcumin (50 μM) for indicated durations before treatment with IFN-α (10 ng/ml) for additional 30 min and then examined for phosphorylated and nonphosphorylated-STAT1.
U266 cells (2×10^6 cells) were treated with 50 μM curcumin for the indicated durations (left panels) or treated for 1 h and washed with PBS two times to remove curcumin before resuspending in fresh medium. Cells were removed at indicated times and lysed to prepare the whole cell extract (right panels). Thirty micrograms of whole cell extracts were resolved on 7.5% SDS-PAGE, electrotransferred to a nitrocellulose membrane, probed for the phosphorylated-STAT3 (upper panels) and stripped and reprobed for STAT3 (middle panels) and β-actin (lower panels).
Thirty micrograms of whole-cell extract was resolved on 7.5% SDS-PAGE, electrotransferred to a nitrocellulose membrane, probed for the phospho-STAT3 (upper panel), stripped, and reprobed for STAT3 (middle panel) and β-actin (lower panel).
(§2) For detection of STAT proteins, whole-cell extracts were prepared by lysing the curcumin-treated cells in lysis buffer (20 mM Tris, pH 7.4, 250 mM NaCl, 2 mM EDTA, pH 8.0, 0.1% Triton-X100, 0.01 mg/ml aprotinin, 0.005 mg/ml leupeptin, 0.4 mM PMSF, and 4 mM NaVO4). Lysates were then spun at 14000 rpm for 10 min to remove insoluble material, and resolved on a 7.5% gel. After electrophoresis, the proteins were electrotransferred to a nitrocellulose membrane, blocked with 5% nonfat milk, and probed with anti-STAT antibodies (1:1000) overnight at 4° C. The blot was washed, exposed to HRP-conjugated secondary antibodies for 1 h, and finally examined by chemiluminescence (ECL, Amersham Pharmacia Biotech. Arlington Heights, Ill.).
Whether curcumin inhibits the constitutive STAT3 phosphorylation in U266 was investigated. U266 cells were incubated either with different concentrations of curcumin for 1 h or with 50 μM curcumin for different times. Curcumin inhibited the constitutively active STAT3 in a dose-(FIG. 1A) and time-(FIG. 1B) dependent manner. Curcumin-induced inhibition could be observed as early as 10 min and with a concentration as low as 10 μM.
Whether curcumin-induced inhibition of STAT3 phosphorylation was reversible was further examined. U266 cells were first treated for 60 min with curcumin, and then the cells were washed twice with PBS to remove curcumin. The cells were then cultured in the fresh medium for various durations, and the levels of phosphorylated STAT3 were measured.
In comparison, treatment of cells with 50 μM curcumin for 60 minutes was sufficient to inhibit STAT3 phosphorylation (see FIGS. 1A and 1B).

[1] = tested on: STAT3 nuclear translocation; experiment: STAT3 distribution in HNSCC cells (immunocytochemistry, Alexa fluorochrome); details: MDA 1986LN, MDA 686LN and JMAR cells, 50 μM, 2 hrs
Description: MDA 1986LN, MDA 686LN and JMAR cells were incubated with either media alone or with curcumin (50 μM) for 2 hrs and then analyzed by immunocytochemistry using Alexa fluorochrome for the distribution of STAT3 (original magnification ×200). […] The same procedure as mentioned above was performed on the same cells and the p-STAT3 analyzed by immunocytochemistry using horse radish peroxidase stain (original magnification ×200).
Since STAT3 retained in the cytoplasm under resting conditions and in the non-phosphorylated state translocates to nucleus when phosphorylated, the effect of curcumin on the distribution of STAT3 was examined. To accomplish this, curcumin-treated and untreated MDA 1986LN, MDA 686LN and JMAR cells were analyzed for distribution of STAT3 by immunocytochemistry using ALEXA fluorochrome.

STAT5 phosphorylation = experiment: Constitutive STAT5 phosphorylation in U266 cells (Western blot); details: 50 μM, conditions of complete STAT3 phosphorylation inhibition
Description: as §1
as §2, with “Ill.). […]” for “Ill.).”

Structure (SMILES): COc1cc(/C=C/C(=O)CC(=O)/C=C/c2ccc(O)c(OC)c2)ccc1O [curcumin, diferuloylmethane]
- IL-6-induced proliferation of U266 cells (U266 cells): completely inhibited
- dose needed to suppress STAT3 phosphorylation (comparison AG490 vs curcumin) (STAT3 phosphorylation): 10 µM
- earliest time at which inhibition of constitutive STAT3 phosphorylation could be observed (STAT3 phosphorylation; U266 cells, 50 μM curcumin): 10 min
- treatment time sufficient to inhibit STAT3 phosphorylation (STAT3 phosphorylation; U266 cells, 50 μM curcumin): 60 min
- inhibition of constitutive STAT3 phosphorylation (STAT3 phosphorylation; U266 cells, 50 μM, 1 h): completely inhibited
- lowest concentration at which inhibition of constitutive STAT3 phosphorylation could be observed (STAT3 phosphorylation; U266 cells, 1 h): 10 µM
- time to complete reversal of STAT3 phosphorylation inhibition after removal of curcumin (STAT3 phosphorylation; U266 cells, 60 min treatment then washed): ≤ 24 h
- overall expression of STAT3 protein (STAT3 phosphorylation; U266 cells, curcumin treatment): did not alter the overall expression of STAT3 protein
- exposure needed to suppress STAT3 phosphorylation (comparison AG490 vs curcumin) (STAT3 phosphorylation; curcumin): 30 min
- translocation of STAT3 to the nucleus [1]: prevented the translocation of STAT3 to the nucleus
- levels of constitutively phosphorylated STAT5 (STAT5 phosphorylation): neither altered the levels of constitutively phosphorylated STAT5
